The text below walks through data of ChEMBL document CHEMBL1141441, “Crystallographic investigation of the inhibition mode of a VIM-2 metallo-beta-lactamase from Pseudomonas aeruginosa by a mercaptocarboxylate inhibitor” (J Med Chem, 2007).

A short description of this assay: Inhibition of IMP1 expressed in Escherichia coli BL21 (DE3).

As a reminder, the Ki is a dissociation constant, usually derived from enzyme kinetics or from competition with a known ligand. In turn, `O=C(O)C(CS)CCCc1ccccc1` (racemic) showed a Ki of 1.66 µM. This lies in the single-digit micromolar range.
